The text below walks through data of patent publication US8865448B2, “Aspergillus containing beta-glucosidase, beta-glucosidases and nucleic acids encoding the same” (Cleanvantage LLC, priority 2010, dated 2014).

By Km is commonly meant the concentration of substrate that gives half-maximal velocity.

Experiment [1] concerns Novozym 188 beta-glucosidase (Aspergillus niger), commercial preparation. Briefly: Michaelis-Menten kinetics with cellobiose, Novozym 188. The experiment is classed as biochemical. The following applies: cellobiose as substrate, 50° C. As for the experimental part: (§1) In this work specific activity (U/mg) is defined as units per amount of total protein. […] The assay using 5 mM pNPG in NaCltrate buffer pH 4.8 was performed as previously described; enzyme samples were assayed at different concentrations in triple determination to ensure substrate saturation in the assay. […] The glucose concentration was measured at Dionex ICS3000 using gradient elution: 0-20% eluent B (0.5M NaAcetate in 100 mM NaOH) in 13 min followed by 2 min washing with 50% eluent B and 5 min re-equilibrating with 100% eluent A (100 mM NaOH). Samples were assayed at different concentrations in triple determination to ensure substrate saturation in the assay.
(§2) Triple determinations were performed. A substrate saturation curve was prepared by plotting substrate concentration [S] vs reaction rate, v. The Michealis Menten constants Km and Vmax were determined from Hanes-Wolf plots where substrate concentration [S] is plotted against substrate concentration over reaction rate [S]/v, and the linear relationship of the data gives a slope of 1/Vmax, a y-intercept of Km/Vmax, and an x-intercept of −Km.
(§3) Enzyme kinetics are preferably carried out on pure enzyme preparations, but are in this study used for the comparison of the beta-glucosidases of the crude enzyme extract of strain AP/Aspergillus saccharolyticus and the commercial enzyme preparation Novozym 188 and Cellic CTec. […]

Experiment [2] relates to A. niger NIAB280 beta-glucosidase. The following applies: hydrolysis of cellobiose, 50° C., pH 5.0; cited from earlier work.
Experiment [3] deals with A. niger CCRC31494 beta-glucosidase. The conditions noted are these: hydrolysis of cellobiose, 40° C., pH 4.0; cited from earlier work.
Experiment [4] relates to A. japonicus beta-glucosidase. The conditions noted are these: cellobiose; cited from earlier work.
For experiment [5], the system named is A. phoenicis QM329 beta-glucosidase. The following applies: cited from earlier work.
The subject of experiment [6] is Cellic CTec beta-glucosidases, commercial preparation. Briefly: Michaelis-Menten kinetics with cellobiose, Cellic CTec. It counts as biochemical. The conditions noted are these: cellobiose as substrate, 50° C. On the procedure: as §1, §2, §3
The subject of experiment [7] is Aspergillus saccharolyticus (strain AP, CBS 127449) beta-glucosidases, crude enzyme extract. Briefly: Michaelis-Menten kinetics with cellobiose, crude solid state fermentation extract of strain AP. It counts as biochemical. The conditions noted are these: cellobiose as substrate, 50° C. On the procedure:
The fungal strain AP/Aspergillus saccharolyticus was grown on potato dextrose agar (Sigma) for sporulation. Spores were harvested after 7 days of growth by adding sterile water to the plate and scrape on the surface of the culture. The heavy spore suspension was filtered through Myra cloth. Two ml of the spore solution was inoculated into 200 ml seed medium (2.0 g/l wheat bran, 5 g/l corn steep powder, 0.25 g/l yeast extract, 0.75 g/l peptone, 1.4 g/l (NH4)2SO4, 2.0 g/l KH2PO4, 0.4 g/l CaCl2 2H2O, 0.3 g/l MgSO4H2O, 5.0 mg/l FeSO4, 1.6 mg/l MnSO4 7H2O, 1.4 mg/l ZnSO4 7H2O, 2.0 CoCl2 6H2O) in an 500 ml Erlenmeyer flask, and incubated at 30° C. for 2 days, shaking at 160 rpm. […] The samples were incubated at 30° C. without shaking. After 7 days incubation, liquid was extracted from the medium by pressing the medium by hand using gloves. The extract was centrifuged at 10000 g, and the supernatant filtered through Whatman filter paper. In this work specific activity (U/mg) is defined as units per amount of total protein. […] Samples were assayed at different concentrations in triple determination to ensure substrate saturation in the assay. […] Triple determinations were performed. A substrate saturation curve was prepared by plotting substrate concentration [S] vs reaction rate, v. […]

In experiment [8] the test system is A. niger BKMF-1305 beta-glucosidase. The conditions noted are these: cited from earlier work.
The target of experiment [9] is T1, Aspergillus saccharolyticus CBS 127449 beta-glucosidase BGL1, his-tagged, expressed in T. reesei, SEQ ID NO: 3 (without signal peptide SEQ ID NO: 4) (Aspergillus saccharolyticus, UniProt G0X2F9).
T1 construct: mature form lacks signal peptide 1-19
T1 sequence (G0X2F9 20-860): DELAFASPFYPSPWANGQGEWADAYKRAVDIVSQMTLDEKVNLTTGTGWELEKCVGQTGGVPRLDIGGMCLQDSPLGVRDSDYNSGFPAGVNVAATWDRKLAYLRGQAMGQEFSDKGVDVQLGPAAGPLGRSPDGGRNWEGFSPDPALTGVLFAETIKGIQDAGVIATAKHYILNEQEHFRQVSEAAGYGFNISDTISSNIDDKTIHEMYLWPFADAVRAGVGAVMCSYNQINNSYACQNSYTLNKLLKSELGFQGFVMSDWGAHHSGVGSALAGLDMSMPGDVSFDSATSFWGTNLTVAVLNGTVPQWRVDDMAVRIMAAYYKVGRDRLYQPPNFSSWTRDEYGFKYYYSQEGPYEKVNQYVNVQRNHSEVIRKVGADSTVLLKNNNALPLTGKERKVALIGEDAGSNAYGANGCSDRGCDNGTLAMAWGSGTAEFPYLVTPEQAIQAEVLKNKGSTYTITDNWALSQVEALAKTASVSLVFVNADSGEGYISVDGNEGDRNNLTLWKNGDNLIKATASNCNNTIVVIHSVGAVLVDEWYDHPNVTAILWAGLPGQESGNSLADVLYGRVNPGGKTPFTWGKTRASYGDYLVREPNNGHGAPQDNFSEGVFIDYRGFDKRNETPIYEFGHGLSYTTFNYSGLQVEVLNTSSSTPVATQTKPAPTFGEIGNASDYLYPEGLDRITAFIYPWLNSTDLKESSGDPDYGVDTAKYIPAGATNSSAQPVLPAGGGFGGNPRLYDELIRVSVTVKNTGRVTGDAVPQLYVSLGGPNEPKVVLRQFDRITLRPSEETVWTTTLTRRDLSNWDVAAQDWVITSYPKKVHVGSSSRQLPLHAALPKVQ
In words: Michaelis-Menten kinetics with cellobiose, purified BGL1. It counts as biochemical. The conditions noted are these: cellobiose as substrate, 50° C., pH 4.8, Hanes plot.
Protocol: In this work specific activity (U/mg) is defined as units per amount of total protein. […] The assay using 5 mM pNPG in NaCltrate buffer pH 4.8 was performed as previously described; enzyme samples were assayed at different concentrations in triple determination to ensure substrate saturation in the assay. […] Samples were assayed at different concentrations in triple determination to ensure substrate saturation in the assay.

Experiment [10] deals with A. niger beta-glucosidases. The following applies: cellobiose; general literature search; cited from earlier work.
The test system of experiment [11] is A. carbonarius KLU-93 beta-glucosidase. The conditions noted are these: cited from earlier work.
The mark [12] stands for this setting: cellobiose, jointly for A. phoenicis, A. niger, A. carbonarius (Jager et al., 2001).
[13] abbreviates: hydrolysis of cellobiose, 50° C., pH 4.0.

On to `OC[C@H]1O[C@@H](O[C@H]2[C@H](O)[C@@H](O)C(O)O[C@@H]2CO)[C@H](O)[C@@H](O)[C@@H]1O` (some centres unmarked) [cellobiose], for which the Michaelis constant (Km) in experiment [1] (pH 4.8, Hanes-Wolf plot) was 1060 µM; in experiment [4], 1000 µM; in [5] (setting [12]), 2000 to 3000 µM; in experiment [6] (pH 4.8, Hanes-Wolf plot), 1690 µM; in experiment [7] (pH 4.8, Hanes-Wolf plot), 1090 µM; in experiment [8] (setting [12]), 2000 to 3000 µM. The Km in experiment [10] is 1500 to 5600 µM; in [11] (setting [12]), 2000 to 3000 µM. Further, the Vmax is recorded as 7.5 U/mg in experiment [1] (pH 4.8, per total protein); 36.5 U/mg in experiment [2]; 5.27 U/mg in experiment [3]; 27.3 U/mg in experiment [5] (setting [13]); 22.9 U/mg in [6] (pH 4.8, per total protein); 11.3 U/mg in experiment [7] (pH 4.8, per total protein). Further, the Vmax is given as 38.8 U/mg in [8] (setting [13]), 45 U/mg in experiment [9] and 15.4 U/mg in [11] (setting [13]).
